tested on: embryos from zebrafish model of DMD; test: not given; conditions: Li and Amer, PLoSONE, 2015; cited from earlier work

| SMILES | protection of muscles from pathological muscle derangement |
| --- | --- |
| Cc1ccc(S(=O)(=O)NCc2ccccc2)cc1 [BTS, N-benzyl-p-tolyl-sulfonamide] | protect muscles from pathological muscle derangement |

target: T1, skeletal myofibrils (Rabbit Psoas), myosin ATPase activity; test: Skeletal Myofibril ATPase Assay; format: biochemical; conditions: skeletal myofibrils (Rabbit Psoas 0.25 mg/mL), PK/LDH-coupled NADH absorbance at 340 nm
T1 construct: Rabbit Psoas Prep 11 (0.25 mg/mL)
In short: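 PK-LDH coupled assay: ADP from myofibril ATPase drives NADH oxidation, read as A340 every 1.5-2 min over 45 min; rate taken as max−min absorbance. Normalized to 1% DMSO vehicle (100%) and fitted to a four-parameter logistic for IC50, bottom constrained ≥0. Buffer pH 7.0 (PIPES/CaCl2/EGTA).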

| SMILES | IC50 [µM] |
| --- | --- |
| O=c1ccc(-c2ccc(OC(F)F)nc2)nn1Cc1ccc(Cl)c(F)c1 [Compound 15, 2-(4-chloro-3-fluorobenzyl)-6-(6-(difluoromethoxy)pyridin-3-yl)pyridazin-3(2H)-one] | < 10 |
| C=Cc1ccc(Cn2nc(-c3ccc(OC)cc3F)ccc2=O)cc1 [Compound 202, 6-(2-fluoro-4-methoxyphenyl)-2-(4-vinylbenzyl)pyridazin-3(2H)-one] | > 100 |
| O=c1ccc(-c2ccc(F)cc2)nn1Cc1cccc(F)c1 [Compound 242, 2-(3-fluorobenzyl)-6-(4-fluorophenyl)pyridazin-3(2H)-one] | < 10 |

Other lines, results leading:

| IC50 [µM] | SMILES |
| --- | --- |
| < 10 | CC(=O)Nc1ccc(-c2ccc(=O)n(Cc3ccc(Cl)cc3)n2)cc1 [Compound 107, N-(4-(1-(4-chlorobenzyl)-6-oxo-1,6-dihydropyridazin-3-yl)phenyl)acetamide] |
| < 10 | N#CCOc1ccc(-c2ccc(=O)n(Cc3ccc(Cl)cc3)n2)cc1 [Compound 108, 2-(4-(1-(4-chlorobenzyl)-6-oxo-1,6-dihydropyridazin-3-yl)phenoxy)acetonitrile] |
| < 10 | COCCOc1ccc(-c2ccc(=O)n(Cc3ccc(Cl)cc3)n2)cc1 [Compound 106, 2-(4-chlorobenzyl)-6-(4-(2-methoxyethoxy)phenyl)pyridazin-3(2H)-one] |
| < 10 | O=c1ccc(-c2cnc(NCCOC(F)F)nc2)nn1Cc1ccc(Cl)cc1 [Compound 46, 2-(4-chlorobenzyl)-6-(2-((2-(difluoromethoxy)ethyl)amino)pyrimidin-5-yl)pyridazin-3(2H)-one] |
